In patent US7618985B2 (N.V. Organon, priority 2005, dated 2009):

Molecular target: recombinant human ROCK-1 (Homo sapiens, UniProt Q13464)
Assay: In-vitro inhibitory activity on recombinant human ROCK-1 (IMAP fluorescence polarisation, fluorescein-labelled peptide)
Format: biochemical
Conditions: for IC50: read-out: ROCK-I pIC50 (converted)
Experimental: In-Vitro Determination of Inhibitory Activity of Compounds of the Invention on Recombinant Human ROCK-1
10 μl of a 0.1 ng/μl solution of recombinant human ROCK-1 in assay buffer containing 2 mM dithiothreitol, is then added to each well, yielding a final test compound concentration of 10 μM. Following a one hour incubation at room temperature in the dark, enzyme activity is detected by adding 60 μl of IMAP binding reagent (Molecular Devices) to each well.

recombinant human ROCK-1, sequence (Q13464 whole entry): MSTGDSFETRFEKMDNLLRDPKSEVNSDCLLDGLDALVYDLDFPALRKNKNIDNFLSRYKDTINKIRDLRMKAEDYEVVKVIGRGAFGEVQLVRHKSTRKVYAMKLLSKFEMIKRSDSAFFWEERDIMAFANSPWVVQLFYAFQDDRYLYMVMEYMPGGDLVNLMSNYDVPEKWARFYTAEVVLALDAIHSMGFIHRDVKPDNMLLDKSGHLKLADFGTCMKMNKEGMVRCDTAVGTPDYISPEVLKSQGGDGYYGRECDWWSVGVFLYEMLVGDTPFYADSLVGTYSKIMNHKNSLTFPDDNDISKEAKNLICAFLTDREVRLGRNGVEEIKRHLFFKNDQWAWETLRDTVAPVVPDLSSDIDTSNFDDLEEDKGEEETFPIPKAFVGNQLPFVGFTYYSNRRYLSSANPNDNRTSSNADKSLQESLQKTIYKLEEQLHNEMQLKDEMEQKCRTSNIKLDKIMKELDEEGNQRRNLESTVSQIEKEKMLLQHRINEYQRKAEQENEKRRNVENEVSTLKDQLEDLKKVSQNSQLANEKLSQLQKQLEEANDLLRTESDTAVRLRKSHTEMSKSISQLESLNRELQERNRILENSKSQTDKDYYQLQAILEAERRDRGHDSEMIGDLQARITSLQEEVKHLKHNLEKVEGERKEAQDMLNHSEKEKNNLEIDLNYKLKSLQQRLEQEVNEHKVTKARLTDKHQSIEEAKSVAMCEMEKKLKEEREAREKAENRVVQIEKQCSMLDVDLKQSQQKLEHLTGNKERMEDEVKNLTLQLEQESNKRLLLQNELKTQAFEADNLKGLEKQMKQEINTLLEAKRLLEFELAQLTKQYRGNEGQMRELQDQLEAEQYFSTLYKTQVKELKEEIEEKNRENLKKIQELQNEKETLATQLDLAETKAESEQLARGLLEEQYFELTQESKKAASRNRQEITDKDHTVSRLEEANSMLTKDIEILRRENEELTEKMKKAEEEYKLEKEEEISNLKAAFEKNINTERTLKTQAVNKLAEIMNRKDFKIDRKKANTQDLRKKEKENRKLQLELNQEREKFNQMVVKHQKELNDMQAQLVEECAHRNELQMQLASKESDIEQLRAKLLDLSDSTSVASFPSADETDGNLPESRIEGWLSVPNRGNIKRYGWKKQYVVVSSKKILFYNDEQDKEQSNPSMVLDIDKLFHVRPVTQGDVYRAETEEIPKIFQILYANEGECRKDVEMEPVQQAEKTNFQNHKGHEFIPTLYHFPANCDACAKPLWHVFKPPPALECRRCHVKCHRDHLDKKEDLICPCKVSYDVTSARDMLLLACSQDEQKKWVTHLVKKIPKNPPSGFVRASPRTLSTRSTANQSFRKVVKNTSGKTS

IC50 [nM]	ROCK-I pIC50 (recombinant human ROCK-1, dose response curve, IC50 = concentration causing 50% inhibition of the enzymatic activity)	Compound
398		COc1ccc(CN2CCCC(Oc3ccc4c(=O)[nH]ccc4c3)C2)cc1 (stereo not drawn) [Example 23D, 6-[1-(4-Methoxybenzyl)piperidin-3-yloxy]-2H-isoquinolin-1-one]
251		Nc1nccc2cc(OC3CCCN(Cc4cccs4)C3)ccc12 (stereo not drawn) [Example 7G, 6-(1-Thiophen-2-ylmethylpiperidin-3-yloxy)isoquinolin-1-ylamine]
794		Cc1cc2c(N)nccc2cc1OC1CCCN(Cc2ccccc2)C1 (stereo not drawn) [Example 19A]
200		CC(c1ccccc1)N1CCC[C@H](Oc2ccc3c(N)nccc3c2)C1 (stereo partly drawn) [Example 21G, (S)-6-[1-(1-Phenylethyl)piperidin-3-yloxy]isoquinolin-1-ylamine]
126		Nc1nccc2cc(OC3CCCN(Cc4ccc[nH]4)C3)ccc12 (stereo not drawn) [Example 7F, 6-[1-(1H-Pyrrol-2-ylmethyl)piperidin-3-yloxy]isoquinolin-1-ylamine]
158		Cc1ccc(CN2CCC[C@H](Oc3ccc4c(N)nccc4c3)C2)cc1 [Example 8B, (S)-6-[1-(4-Methylbenzyl)piperidin-3-yloxy]isoquinolin-1-ylamine]
200		Nc1nccc2cc(OC3CCCN(CCOc4ccccc4)C3)ccc12 (stereo not drawn) [Example 21, 6-[1-(2-Phenoxyethyl)piperidin-3-yloxy]isoquinolin-1-ylamine]

Continued, molecule first:

Compound	IC50 [nM]	ROCK-I pIC50 (recombinant human ROCK-1, dose response curve, IC50 = concentration causing 50% inhibition of the enzymatic activity)
O=c1[nH]ccc2cc(OC3CCN(Cc4ccco4)CC3)ccc12 [Example 30E, 6-(1-Furan-2-ylmethylpiperidin-4-yloxy)-2H-isoquinolin-1-one]	501	
Nc1nccc2cc(S[C@@H]3CCNC3)ccc12 [Example 13B, (R)-6-(Pyrrolidin-3-ylsulfanyl)isoquinolin-1-ylamine]	631	
O=c1[nH]ccc2cc(O[C@H]3CCCN(CCOc4ccccc4)C3)ccc12 [Example 32C, (S)-6-[1-(2-Phenoxyethyl)piperidin-3-yloxy]-2H-isoquinolin-1-one]	631	
O=c1[nH]ccc2cc(SC3CCNCC3)ccc12 [Example 25, 6-(Piperidin4-ylsulfanyl)-2H-isoquinolin-1-one]	200	
Nc1nccc2cc(S[C@H]3CCNC3)ccc12 [Example 13A, (S)-6-(Pyrrolidin-3-ylsulfanyl)isoquinolin-1-ylamine]	631	
O=C(CN1CCC[C@H](Oc2ccc3c(=O)[nH]ccc3c2)C1)c1ccccc1 [Example 32B, (S)-6-[1-(2-Oxo-2-phenylethyl)piperidin-3-yloxy]-2H-isoquinolin-1-one]	501	
O=c1[nH]cc(Br)c2cc(O[C@H]3CCCNC3)ccc12 [Example 29]	316	
O=c1[nH]ccc2cc(O[C@@H]3CCCN(CCOc4ccccc4)C3)ccc12 [Example 32E, (R)-6-[1-(2-Phenoxyethyl)piperidin-3-yloxy]-2H-isoquinolin-1-one]	251	
O=c1[nH]ccc2cc(OC3CCN(CCO)CC3)ccc12 [Example 31E, 6-[1-(2-Hydroxyethyl)piperidin-4-yloxy]-2H-isoquinolin-1-one]	794	
COc1cccc(CN2CCC(Oc3ccc4c(=O)[nH]ccc4c3)CC2)c1 [Example 31F, 6-[1-(3-Methoxybenzyl)piperidin-4-yloxy]-2H-isoquinolin-1-one]	398	
Nc1nccc2cc(SC3CCCNC3)ccc12 (stereo not drawn) [Example 12, 6-(Piperidin-3-ylsulfanyl)isoquinolin-1-ylamine]	501	
Nc1nccc2cc(SC3CCNCC3)ccc12 [Example 13C, 6-(Piperidin-4-ylsulfanyl)isoquinolin-1-ylamine]	631	
O=c1[nH]ccc2cc(OC3CCN(Cc4ccc[nH]4)CC3)ccc12 [Example 31G, 6-[1-(1 H-Pyrrol-2-ylmethyl)piperidin-4-yloxy]-2H-isoquinolin-1-one]	316	
CN1CCC(Oc2ccc3c(=O)[nH]ccc3c2)CC1 [Example 30G, 6-(1-Methylpiperidin-4-yloxy)-2H-isoquinolin-1-one]	631	
Cc1ccc(CN2CCC(Oc3ccc4c(=O)[nH]ccc4c3)CC2)cc1 [Example 30A, 6-[1-(4-Methylbenzyl)piperidin-4-yloxy]-2H-isoquinolin-1-one]		6.1
O=c1[nH]ccc2cc(OC3CCN(CCCO)CC3)ccc12 [Example 31C, 6-[1-(3-Hydroxypropyl)piperidin-4-yloxy]-2H-isoquinolin-1-one]	794	
O=c1[nH]ccc2cc(OC3CCCN(CC4CCCCC4)C3)ccc12 (stereo not drawn) [Example 33C, 6-(1-Cyclohexylmethylpiperidin-3-yloxy)-2H-isoquinolin-1-one]	501	
